According to US6984404B1, “Methods for preparing coated drug particles and pharmaceutical formulations thereof” (University of Florida Research Foundation, Inc., priority 1998, dated 2006):
“And” between values parts separate entries of the source, which are not always exact repeats. Identical values can stand only once. Like-named read-outs stand apart in the source and are kept apart here.

Assays:
[1] = Plasma concentration after intratracheal administration in rats; assay type: in vivo
Procedure: Characterization of films deposited on silicon wafers or glass slides was performed using SEM. FTIR, and NMR to characterize polymer structure and morphology. The BUD10 and BUD25 coated powders were tested in vitro to assess differences in the dissolution rates. […] Comparison of the plasma concentrations after IT administration of the coated powders with uncoated BUD powders and IV administration of BUD solution, as well as with FP after IT administration, were performed to compare absorption rates. Finally, the pulmonary targeting of coating BUD25 powders after IT administration was compared with the pulmonary targeting of uncoated BUD and FP powders after IT administration and BUD solution after IV administration. Verification of deposited polymer on silicon wafers using NMR and FTIR was used to characterize molecular structure.

plasma protein = conditions: cited from earlier work
[2] = cited from earlier work; for half-life after intravenous administration: intravenous (FP: terminal half-life)
[3] = biological target: T1, glucocorticoid receptor (GR) (Homo sapiens, UniProt P04150); conditions: cited from earlier work
T1 sequence (P04150 1-777): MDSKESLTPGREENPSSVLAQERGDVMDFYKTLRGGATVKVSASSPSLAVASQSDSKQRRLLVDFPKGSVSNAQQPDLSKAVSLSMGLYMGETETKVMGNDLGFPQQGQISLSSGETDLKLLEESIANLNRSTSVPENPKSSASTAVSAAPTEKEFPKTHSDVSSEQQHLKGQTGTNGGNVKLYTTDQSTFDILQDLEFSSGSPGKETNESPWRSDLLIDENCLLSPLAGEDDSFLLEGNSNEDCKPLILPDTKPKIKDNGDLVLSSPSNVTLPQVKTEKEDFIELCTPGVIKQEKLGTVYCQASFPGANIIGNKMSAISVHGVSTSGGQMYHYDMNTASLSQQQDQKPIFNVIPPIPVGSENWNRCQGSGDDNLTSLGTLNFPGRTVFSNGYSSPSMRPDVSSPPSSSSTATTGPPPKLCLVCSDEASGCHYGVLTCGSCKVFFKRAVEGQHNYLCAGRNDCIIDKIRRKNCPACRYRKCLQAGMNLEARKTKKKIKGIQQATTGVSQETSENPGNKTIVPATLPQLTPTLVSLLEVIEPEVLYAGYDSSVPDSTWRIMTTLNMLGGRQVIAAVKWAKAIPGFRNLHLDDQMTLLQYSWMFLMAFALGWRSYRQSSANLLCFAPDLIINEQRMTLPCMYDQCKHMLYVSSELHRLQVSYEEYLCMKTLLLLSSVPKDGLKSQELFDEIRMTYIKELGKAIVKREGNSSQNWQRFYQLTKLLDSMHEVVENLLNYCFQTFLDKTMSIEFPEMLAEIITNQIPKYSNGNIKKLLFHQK

[4] = cited from earlier work; for pulmonary deposition ratio, MDI: metered dose inhaler (TA: Azmacort MDI with spacer)
[5] = rats; cited from earlier work

CCCC1O[C@@H]2C[C@H]3[C@@H]4CCC5=CC(=O)C=C[C@]5(C)[C@H]4[C@@H](O)C[C@]3(C)[C@]2(C(=O)CO)O1 (stereo partly shown) [Budesonide, budesonide]
time of peak plasma concentration [1]: 0.5 h | MAT ([1]; calculated): 0.3 h | plasma protein binding (plasma protein): 88% | Cmax ([2]; after inhalation via Turbohaler): 3.5 nM | plasma half-life ([2]; approximately the same after intravenous and inhalation administration): 2.8 h | oral bioavailability ([2]; in vivo): 11% | volume of distribution at steady state ([2]; in vivo): 183 L | first-pass metabolism of an oral dose ([2]; oral): About 89%

CCC(=O)O[C@]1(C(=O)SCF)[C@H](C)C[C@H]2[C@@H]3C[C@H](F)C4=CC(=O)C=C[C@]4(C)[C@@]3(F)[C@@H](O)C[C@@]21C [FP, fluticasone propionate]
receptor binding affinity (RBA) [3]: 1800 | plasma protein binding (plasma protein): 90% | pulmonary deposition ratio, DPI ([4]; dry powder inhaler): 15% | pulmonary deposition ratio, MDI [4]: 26% | t1/2 (dose-dependent) ([2]; Möllmann et al., 1998): 5.2 to 7.4 h and 6.0 ± 0.7 h | terminal half-life after inhalation ([2]; Thorsson et al. 1997): 10 h | mean absorption time (MAT) ([2]; after inhalation): 4.9 h | oral bioavailability ([2]; in vivo): less than 1% | clearance ([2]; in vivo): 66 L/h | drug excreted in the feces ([2]; in vivo): 87–100% | excreted as the inactive 17-carboxylic acid ([2]; in vivo): 340% | volume of distribution at steady state ([2]; in vivo): 318 L | overall bioavailability after inhalation ([2]; inhalation): 10–15% | mean residence time after inhaled administration (AUMC/AUC) ([2]; inhaled): 9.1 ± 1.1 h and 7.8 to 11 h | half-life after intravenous administration [2]: 7.7 to 8.3 h

CC1(C)O[C@@H]2C[C@H]3[C@@H]4CCC5=CC(=O)C=C[C@]5(C)[C@@]4(F)[C@@H](O)C[C@]3(C)[C@]2(C(=O)CO)O1 [TA, triamcinolone acetonide]
plasma protein binding (plasma protein): 71% | pulmonary deposition ratio, MDI [4]: approximately 22% | mean residence time ([2]; after intravenous administration): 2.7 h | absorption of suspension in the lungs ([2]; by the difference in half-lives of intravenous versus inhaled doses): ~2 h | oral bioavailability ([2]; in vivo): 20–25% | clearance ([2]; in vivo): 37.3 L/h | volume of distribution ([2]; in vivo): 100 to 150 L | half-life after inhaled dose ([2]; inhaled): 3.6 h | half-life after intravenous administration [2]: 1.4 to 2.0 h

CC(C)NCC(O)c1ccc(O)c(O)c1 (stereo not shown) [free isopreternol, isoproterenol]
duration of amelioration of bronchoconstriction [5]: 30 min

Triamcinolone acetonide phosphate [TAP]
plasma half-life ([2]; IV administration in humans): 0.05 to 0.067 h
